Activity calls are given as the source filed them. No cut-off for these calls is given here.
Tests used:
[1] = biological target: T1, Fibroblast growth factor receptor 1 (Homo sapiens, UniProt P11362); assay: Inhibition of FGFR1 (unknown origin) using Tyr 04 peptide substrate measured after 2 hrs by FRET assay
[2] = biological target: T2, Fibroblast growth factor receptor 4 (Homo sapiens, UniProt P22455); assay: Inhibition of FGFR4 (unknown origin) using Tyr 04 peptide substrate measured after 2 hrs by FRET assay
[3] = biological target: Fibroblast growth factor receptor 2 (Homo sapiens, UniProt P21802); assay: Inhibition of FGFR2 (unknown origin) using Tyr 04 peptide substrate measured after 2 hrs by FRET assay
[4] = biological target: T3, Fibroblast growth factor receptor 3 (Homo sapiens, UniProt P22607); assay: Inhibition of FGFR3 (unknown origin) using Tyr 04 peptide substrate measured after 2 hrs by FRET assay
[5] = tested on: Huh-7; assay: Cytotoxicity against human Huh-7 cells harboring FGF19/FGFR4 assessed as inhibition of cell growth
[6] = tested on: Hep 3B2; assay: Cytotoxicity against human Hep 3B2.1-7 cells harboring FGF19/FGFR4 assessed as inhibition of cell growth; conditions: Hep3B
[7] = tested on: MDA-MB-453; assay: Cytotoxicity against human MDA-MB-453 cells harboring FGF19/FGFR4 assessed as inhibition of cell growth
[8] = tested on: NCI-H1581; assay: Cytotoxicity against human NCI-H1581 cells harboring FGF19/FGFR4 assessed as inhibition of cell growth
[9] = biological target: T1, Fibroblast growth factor receptor 1; assay: Inhibition of human FGFR1 expressed in bacterial expression system at 1000 nM by KINOMEscan assay relative to control
[10] = tested on: Fibroblast growth factor receptor 2 (Homo sapiens), P21802 [N549H]; assay: Inhibition of human FGFR2 N549H mutant expressed in bacterial expression system at 1000 nM by KINOMEscan assay relative to control
[11] = biological target: T3, Fibroblast growth factor receptor 3; assay: Inhibition of human FGFR3 expressed in bacterial expression system at 1000 nM by KINOMEscan assay relative to control
[12] = biological target: Proto-oncogene tyrosine-protein kinase receptor Ret (Homo sapiens) (UniProt P07949); assay: Inhibition of human RET expressed in bacterial expression system at 1000 nM by KINOMEscan assay relative to control
[13] = biological target: Receptor-type tyrosine-protein kinase FLT3 (Homo sapiens) (UniProt P36888); assay: Inhibition of human FLT3 expressed in bacterial expression system at 1000 nM by KINOMEscan assay relative to control
[14] = biological target: Platelet-derived growth factor receptor alpha (Homo sapiens) (UniProt P16234); assay: Inhibition of human PDGFRA expressed in mammalian expression system at 1000 nM by KINOMEscan assay relative to control
[15] = biological target: Platelet-derived growth factor receptor beta (Homo sapiens) (UniProt P09619); assay: Inhibition of human PDGFRB expressed in bacterial expression system at 1000 nM by KINOMEscan assay relative to control
[16] = biological target: MAP kinase-activated protein kinase 2 (Homo sapiens) (UniProt P49137); assay: Inhibition of human MAPKAPK2 expressed in bacterial expression system at 1000 nM by KINOMEscan assay relative to control
[17] = biological target: MAP kinase-activated protein kinase 3 (Homo sapiens) (UniProt Q16644); assay: Inhibition of human MAPKAPK3 expressed in bacterial expression system at 1000 nM by KINOMEscan assay relative to control
[18] = biological target: Transient receptor potential cation channel subfamily M member 7 (Homo sapiens) (UniProt Q96QT4); assay: Inhibition of human CHAK1 at 1000 nM by KINOMEscan assay relative to control
[19] = biological target: Phosphatidylinositol 4-kinase alpha (Homo sapiens) (UniProt P42356); assay: Inhibition of human PIK4 at 1000 nM by KINOMEscan assay relative to control
[20] = biological target: T4, Dual specificity protein kinase TTK (Homo sapiens) (UniProt P33981); assay: Inhibition of human TTK at 1000 nM by KINOMEscan assay relative to control
T4 sequence (whole entry): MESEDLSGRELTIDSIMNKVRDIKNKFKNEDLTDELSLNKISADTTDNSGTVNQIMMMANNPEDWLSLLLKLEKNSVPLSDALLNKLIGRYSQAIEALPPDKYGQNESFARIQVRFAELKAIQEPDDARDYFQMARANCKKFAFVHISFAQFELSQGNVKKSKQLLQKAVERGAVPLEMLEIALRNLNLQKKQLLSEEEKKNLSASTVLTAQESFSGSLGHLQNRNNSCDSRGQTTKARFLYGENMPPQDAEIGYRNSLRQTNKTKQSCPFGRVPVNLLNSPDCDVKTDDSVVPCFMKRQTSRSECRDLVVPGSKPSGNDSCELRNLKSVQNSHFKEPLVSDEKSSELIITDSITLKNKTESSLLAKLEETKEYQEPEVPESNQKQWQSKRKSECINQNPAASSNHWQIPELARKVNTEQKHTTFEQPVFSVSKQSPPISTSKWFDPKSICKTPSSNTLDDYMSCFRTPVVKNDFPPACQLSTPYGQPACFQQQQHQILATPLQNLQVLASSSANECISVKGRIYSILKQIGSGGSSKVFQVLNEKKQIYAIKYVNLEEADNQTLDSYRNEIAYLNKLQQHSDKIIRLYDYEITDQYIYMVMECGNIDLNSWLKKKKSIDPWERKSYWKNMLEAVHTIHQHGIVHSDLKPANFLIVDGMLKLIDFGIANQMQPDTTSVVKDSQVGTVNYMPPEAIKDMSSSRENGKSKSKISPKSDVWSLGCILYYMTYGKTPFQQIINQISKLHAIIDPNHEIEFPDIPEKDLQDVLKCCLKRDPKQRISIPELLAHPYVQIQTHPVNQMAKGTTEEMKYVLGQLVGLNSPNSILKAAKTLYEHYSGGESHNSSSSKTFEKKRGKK

[21] = Half life in Sprague- Dawley rat at 5 mg/kg, iv incubation upto 24 hrs by LC-MS/MS analysis; assay type: ADME, organism-based; conditions: in vivo
[22] = Half life in Sprague- Dawley rat at 25 mg/kg, po incubation upto 24 hrs by LC-MS/MS analysis; assay type: ADME, organism-based; conditions: in vivo
[23] = Cmax in Sprague-Dawley rat at 5 mg/kg, iv incubation upto 24 hrs by LC-MS/MS analysis; assay type: ADME, organism-based; set-up: route intravenous, dose 5 mg/kg, time <=24; conditions: in vivo
[24] = Cmax in Sprague-Dawley rat at 25 mg/kg, po incubation upto 24 hrs by LC-MS/MS analysis; assay type: ADME, organism-based; set-up: route oral, dose 25 mg/kg, time <=24; conditions: in vivo
[25] = AUC(0 to t) in Sprague-Dawley rat at 5 mg/kg, iv incubation upto 24 hrs by LC-MS/MS analysis; assay type: ADME, organism-based; set-up: route intravenous, dose 5 mg/kg, time <=24; conditions: in vivo
[26] = AUC(0 to t) inSprague- Dawley rat at 25 mg/kg, po incubation upto 24 hrs by LC-MS/MS analysis; assay type: ADME, organism-based; set-up: route oral, dose 25 mg/kg, time <=24; conditions: Sprague-Dawley, in vivo
[27] = Clearance in Sprague- Dawley rat at 5 mg/kg, iv incubation upto 24 hrs by LC-MS/MS analysis; assay type: ADME, organism-based; conditions: in vivo
[28] = Oral bioavailability in Sprague- Dawley rat at 25 mg/kg incubation upto 24 hrs by LC-MS/MS analysis; assay type: ADME, organism-based; conditions: in vivo
[29] = tested on: BaF3; assay: Inhibition of FGFR4 expressed in mouse BaF3-ETV6-FGFR4 cells assessed as inhibition of PLCgamma1 phosphorylation by Western blot analysis; assay type: cell-based; conditions: dose 3.7-100 nM
[30] = tested on: BaF3; assay: Inhibition of FGFR4 expressed in mouse BaF3-ETV6-FGFR4 cells assessed as inhibition of FRS2alpha phosphorylation by Western blot analysis; assay type: cell-based; conditions: dose 3.7-100 nM
[31] = biological target: T2, Fibroblast growth factor receptor 4; assay: Binding affinity to FGFR4 (unknown origin) assessed as dissociation constant by competition binding assay
[32] = tested on: Hep 3B2; assay: Inhibition of colony formation in human Hep 3B2.1-7 cells incubated for 10 days by crystal violet staining based assay; assay type: functional, cell-based; conditions: time 10.0 day
[33] = tested on: NCI-H1581; assay: Inhibition of colony formation in human NCI-H1581 cells incubated for 10 days by crystal violet staining based assay; assay type: functional, cell-based; conditions: time 10.0 day
[34] = tested on: Hep 3B2; assay: Antiproliferative activity in human Hep 3B2.1-7 cells assessed as reduction of cell number measured after 72 hrs by CCK8 assay; assay type: functional, cell-based
[35] = tested on: NCI-H1581; assay: Antiproliferative activity in human NCI-H1581 cells assessed as reduction of cell number measured after 72 hrs by CCK8 assay; assay type: functional, cell-based
[36] = tested on: Hep 3B2; assay: Antitumor activity against human Hep 3B2.1-7 cells xenografted in mouse assessed as tumor growth inhibitions at 30 mg/kg, po BID administered for 12 days; assay type: functional; conditions: Hep3B, 288 h, time 12 day, read-out: TGI
[37] = Toxicity in mouse assessed as mortality at 30 mg/kg, po BID administered for 12 days (reference value: < 5 %); assay type: organism-based; conditions: in vivo, 288 h, time 12 day
[38] = Toxicity in mouse assessed as induction of weight loss at 30 mg/kg, po BID administered for 12 days (reference value: < 5 %); assay type: organism-based; conditions: in vivo, 288 h, time 12 day
[39] = tested on: BaF3; assay: Inhibition of FGFR4 expressed in mouse BaF3-ETV6-FGFR4 cells assessed as inhibition of ERK phosphorylation by Western blot analysis; assay type: cell-based; conditions: dose 3.7-100 nM

T2 sequence (P22455 whole entry): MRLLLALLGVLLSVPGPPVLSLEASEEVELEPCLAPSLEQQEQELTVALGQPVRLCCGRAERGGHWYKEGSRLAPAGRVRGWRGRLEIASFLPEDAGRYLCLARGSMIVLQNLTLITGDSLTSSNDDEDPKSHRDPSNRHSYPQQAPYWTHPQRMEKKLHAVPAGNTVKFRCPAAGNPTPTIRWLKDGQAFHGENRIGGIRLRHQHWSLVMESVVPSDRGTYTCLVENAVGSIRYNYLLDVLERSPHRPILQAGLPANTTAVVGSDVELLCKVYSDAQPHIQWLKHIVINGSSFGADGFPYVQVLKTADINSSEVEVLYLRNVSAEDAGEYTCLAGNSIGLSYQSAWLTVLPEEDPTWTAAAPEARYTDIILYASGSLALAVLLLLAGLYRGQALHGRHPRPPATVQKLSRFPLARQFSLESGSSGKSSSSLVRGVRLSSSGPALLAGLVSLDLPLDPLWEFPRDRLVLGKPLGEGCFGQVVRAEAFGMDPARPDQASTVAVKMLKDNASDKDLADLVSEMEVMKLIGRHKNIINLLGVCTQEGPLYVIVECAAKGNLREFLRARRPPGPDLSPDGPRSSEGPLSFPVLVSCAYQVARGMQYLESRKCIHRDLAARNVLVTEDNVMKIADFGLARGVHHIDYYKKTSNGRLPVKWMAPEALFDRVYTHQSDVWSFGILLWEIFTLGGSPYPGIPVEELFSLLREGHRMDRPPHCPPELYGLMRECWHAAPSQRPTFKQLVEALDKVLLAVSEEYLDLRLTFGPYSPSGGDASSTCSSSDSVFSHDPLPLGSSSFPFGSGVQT
Chain of Platelet-derived growth factor receptor beta (Homo sapiens) (P09619 whole entry): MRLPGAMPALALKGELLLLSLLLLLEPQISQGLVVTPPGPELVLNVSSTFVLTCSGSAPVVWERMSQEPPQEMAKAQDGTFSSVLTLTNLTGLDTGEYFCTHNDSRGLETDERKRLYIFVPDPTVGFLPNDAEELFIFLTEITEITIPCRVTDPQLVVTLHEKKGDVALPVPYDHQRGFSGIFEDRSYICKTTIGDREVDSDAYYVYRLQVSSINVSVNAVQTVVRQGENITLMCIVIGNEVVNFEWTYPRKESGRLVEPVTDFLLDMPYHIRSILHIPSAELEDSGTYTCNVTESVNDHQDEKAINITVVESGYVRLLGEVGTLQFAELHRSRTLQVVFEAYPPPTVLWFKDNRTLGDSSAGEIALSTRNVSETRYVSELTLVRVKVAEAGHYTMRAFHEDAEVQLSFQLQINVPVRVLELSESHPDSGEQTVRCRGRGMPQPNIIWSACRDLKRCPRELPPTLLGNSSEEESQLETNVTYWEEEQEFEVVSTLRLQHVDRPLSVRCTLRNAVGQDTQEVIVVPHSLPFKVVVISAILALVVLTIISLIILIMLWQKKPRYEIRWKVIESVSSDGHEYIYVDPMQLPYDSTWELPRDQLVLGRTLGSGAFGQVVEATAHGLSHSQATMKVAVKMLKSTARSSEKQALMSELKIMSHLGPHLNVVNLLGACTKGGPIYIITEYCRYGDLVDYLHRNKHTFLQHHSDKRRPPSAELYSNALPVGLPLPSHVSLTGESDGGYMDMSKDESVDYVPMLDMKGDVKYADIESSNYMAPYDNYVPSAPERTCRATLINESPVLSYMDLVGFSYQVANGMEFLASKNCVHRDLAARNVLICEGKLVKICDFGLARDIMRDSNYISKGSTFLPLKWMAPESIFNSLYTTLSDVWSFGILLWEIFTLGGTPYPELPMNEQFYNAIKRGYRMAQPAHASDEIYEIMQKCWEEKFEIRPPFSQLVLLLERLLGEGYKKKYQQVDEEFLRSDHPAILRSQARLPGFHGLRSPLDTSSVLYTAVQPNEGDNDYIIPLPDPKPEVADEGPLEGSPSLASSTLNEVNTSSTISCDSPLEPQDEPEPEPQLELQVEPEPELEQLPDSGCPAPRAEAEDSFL
Chain of MAP kinase-activated protein kinase 2 (Homo sapiens) (P49137 whole entry, looked up): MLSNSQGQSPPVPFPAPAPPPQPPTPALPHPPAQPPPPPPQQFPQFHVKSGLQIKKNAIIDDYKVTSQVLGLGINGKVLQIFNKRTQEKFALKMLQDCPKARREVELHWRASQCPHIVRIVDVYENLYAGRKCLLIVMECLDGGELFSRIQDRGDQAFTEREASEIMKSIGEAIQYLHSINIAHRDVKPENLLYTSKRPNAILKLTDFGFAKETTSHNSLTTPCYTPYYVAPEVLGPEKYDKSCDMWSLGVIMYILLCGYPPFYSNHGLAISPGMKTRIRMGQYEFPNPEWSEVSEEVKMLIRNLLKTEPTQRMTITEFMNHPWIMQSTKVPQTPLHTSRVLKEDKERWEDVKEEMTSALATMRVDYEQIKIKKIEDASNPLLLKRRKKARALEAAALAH
Chain of MAP kinase-activated protein kinase 3 (Homo sapiens) (Q16644 whole entry, looked up): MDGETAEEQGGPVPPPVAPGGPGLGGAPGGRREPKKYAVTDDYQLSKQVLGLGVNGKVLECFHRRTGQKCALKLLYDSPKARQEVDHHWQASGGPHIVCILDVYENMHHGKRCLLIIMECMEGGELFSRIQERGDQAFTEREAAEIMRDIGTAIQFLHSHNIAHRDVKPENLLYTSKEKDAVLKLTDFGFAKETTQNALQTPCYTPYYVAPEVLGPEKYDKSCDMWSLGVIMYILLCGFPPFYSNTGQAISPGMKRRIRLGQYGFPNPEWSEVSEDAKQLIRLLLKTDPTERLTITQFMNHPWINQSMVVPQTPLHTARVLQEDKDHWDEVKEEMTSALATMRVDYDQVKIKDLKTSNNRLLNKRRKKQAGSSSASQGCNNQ
Chain of Receptor-type tyrosine-protein kinase FLT3 (Homo sapiens) (P36888 whole entry): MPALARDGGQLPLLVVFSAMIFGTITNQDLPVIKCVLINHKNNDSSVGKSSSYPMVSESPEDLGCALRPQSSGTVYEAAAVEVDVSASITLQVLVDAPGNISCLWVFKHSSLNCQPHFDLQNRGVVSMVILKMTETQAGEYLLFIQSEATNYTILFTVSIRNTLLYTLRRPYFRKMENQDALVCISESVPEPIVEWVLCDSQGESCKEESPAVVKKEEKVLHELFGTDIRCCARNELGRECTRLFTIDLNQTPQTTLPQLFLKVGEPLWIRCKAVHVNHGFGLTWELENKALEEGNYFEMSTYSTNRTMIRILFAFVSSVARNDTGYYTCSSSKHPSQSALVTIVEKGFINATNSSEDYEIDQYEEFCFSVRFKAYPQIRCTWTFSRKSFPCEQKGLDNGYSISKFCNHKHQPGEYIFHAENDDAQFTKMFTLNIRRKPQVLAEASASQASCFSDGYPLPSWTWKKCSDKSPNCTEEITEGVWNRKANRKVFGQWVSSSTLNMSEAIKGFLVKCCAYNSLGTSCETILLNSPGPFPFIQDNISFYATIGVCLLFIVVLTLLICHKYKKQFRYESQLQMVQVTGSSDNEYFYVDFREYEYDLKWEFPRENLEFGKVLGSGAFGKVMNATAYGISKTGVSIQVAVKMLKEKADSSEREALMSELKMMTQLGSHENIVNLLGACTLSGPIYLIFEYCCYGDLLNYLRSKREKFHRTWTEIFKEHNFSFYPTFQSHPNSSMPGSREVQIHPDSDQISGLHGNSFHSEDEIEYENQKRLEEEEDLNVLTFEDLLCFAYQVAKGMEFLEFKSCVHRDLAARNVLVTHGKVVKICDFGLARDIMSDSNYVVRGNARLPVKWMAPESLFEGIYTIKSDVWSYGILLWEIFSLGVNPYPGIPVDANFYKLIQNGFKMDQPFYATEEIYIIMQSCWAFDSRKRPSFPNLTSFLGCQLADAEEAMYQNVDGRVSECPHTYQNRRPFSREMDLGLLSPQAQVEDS
Chain of Proto-oncogene tyrosine-protein kinase receptor Ret (Homo sapiens) (P07949 whole entry): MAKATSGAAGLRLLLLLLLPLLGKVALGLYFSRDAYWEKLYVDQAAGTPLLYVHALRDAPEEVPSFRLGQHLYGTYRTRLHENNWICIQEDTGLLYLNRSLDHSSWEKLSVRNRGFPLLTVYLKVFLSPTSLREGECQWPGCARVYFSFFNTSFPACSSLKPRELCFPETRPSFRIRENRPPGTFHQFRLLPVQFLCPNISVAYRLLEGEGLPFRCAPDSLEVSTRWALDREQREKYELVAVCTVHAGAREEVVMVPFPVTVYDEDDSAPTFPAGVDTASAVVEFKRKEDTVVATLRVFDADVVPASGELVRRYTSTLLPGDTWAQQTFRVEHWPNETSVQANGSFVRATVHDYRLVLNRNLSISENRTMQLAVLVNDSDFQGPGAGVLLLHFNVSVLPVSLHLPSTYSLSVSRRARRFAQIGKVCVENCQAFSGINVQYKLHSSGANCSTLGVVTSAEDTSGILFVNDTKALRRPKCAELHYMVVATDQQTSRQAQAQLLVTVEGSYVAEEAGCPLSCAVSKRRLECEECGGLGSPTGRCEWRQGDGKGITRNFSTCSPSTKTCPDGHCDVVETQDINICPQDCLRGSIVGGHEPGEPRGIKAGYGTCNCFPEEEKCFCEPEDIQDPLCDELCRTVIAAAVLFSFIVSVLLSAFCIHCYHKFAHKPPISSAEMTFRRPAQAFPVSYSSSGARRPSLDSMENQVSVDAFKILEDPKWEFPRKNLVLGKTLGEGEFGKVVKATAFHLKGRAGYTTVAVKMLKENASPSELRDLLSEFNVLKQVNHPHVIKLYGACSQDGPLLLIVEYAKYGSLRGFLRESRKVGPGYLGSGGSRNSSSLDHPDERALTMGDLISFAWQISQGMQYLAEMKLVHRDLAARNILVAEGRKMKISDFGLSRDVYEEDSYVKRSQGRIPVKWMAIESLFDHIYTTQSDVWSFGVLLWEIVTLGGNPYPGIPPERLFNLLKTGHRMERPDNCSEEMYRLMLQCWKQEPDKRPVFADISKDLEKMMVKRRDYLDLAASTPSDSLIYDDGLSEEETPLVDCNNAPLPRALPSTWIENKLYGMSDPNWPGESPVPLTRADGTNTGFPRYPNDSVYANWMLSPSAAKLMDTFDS

Structure (SMILES): CC(C)Oc1cc(NC(=O)N2CCCc3cc(CN4CCN(C)CC4=O)c(C=O)nc32)ncc1C#Cc1cccnc1
- IC50 [1]: > 10000 nM
- IC50 [2]: 5.4 nM
- IC50 [3]: > 10000 nM
- IC50 [4]: > 10000 nM
- IC50 [5]: 2.4 nM
- IC50 [6]: 104 nM
- IC50 [7]: 140 nM
- IC50 [8]: > 3000 nM
- inhibition [9]: -5%
- inhibition [10]: 1%
- inhibition [11]: 10%
- inhibition [12]: -2%
- inhibition [13]: 10%
- inhibition [14]: 5%
- inhibition [15]: 5%
- inhibition [16]: -3%
- inhibition [17]: 3%
- inhibition [18]: 8%
- inhibition [19]: 6%
- inhibition [20]: 10%
- half-life [21]: 0.89 h
- half-life [22]: 3.06 h
- Cmax [23]: 11100 ng/mL
- Cmax [24]: 8560 ng/mL
- AUC(0-t) at 24 h [25]: 15300 ng·h/mL
- AUC(0-t) at 24 h [26]: 39000 ng·h/mL
- clearance [27]: 6.15 mL/min/kg
- bioavailability [28]: 51%
- inhibition [29]: Dose-Dependent Effect
- inhibition [30]: Dose-Dependent Effect
- Kd [31]: 6.2 nM
- Activity [32]: Active
- Activity [33]: Active
- Activity [34]: Active
- Activity [35]: Active
- inhibition in vivo at 30 mg/kg [36]: 95.2%
- Activity [37]: Non-Toxic
- Activity [38]: Non-Toxic
- inhibition [39]: Dose-Dependent Effect
